In PubChem BioAssay (NCI) one finds GI50 and TGI data, which are given here for 36 compounds.

Molecules are shown by their SMILES. Values joined by “and” are separate entries in the source; they are usually repeats but may differ in a detail not shown here. Equal entries are not always repeated.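 The compound was tested at five concentrations on cells cultured in 96-well plates, with a 48-hour exposure period. GI50 marks 50% less growth. TGI: total growth inhibition.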

For this assay, the system named is MDA-MB-468 breast. Nature of the assay: growth of human tumour cells (NCI), 48 h.
On to `COc1cc(C(=O)/C=C/c2c(C)n([O-])c3ccc(C)cc3[n+]2=O)cc(OC)c1OC`, for which the GI50 is 2.59 µM and the TGI came to 9.94 µM.

For `N#Cc1c(-c2ccccc2)nc(SCC2CO2)nc1N1CCOCC1` (configuration not stated), the GI50 was 4.15 µM and the TGI was more than 68.4 µM.

Regarding `CC12CCC3C(CCC4Cc5[nH]c6ccccc6c5CC43C)C1CCC2O` (configuration not stated), the GI50 was 2.78 µM and the TGI is more than 100 µM.

As for `COc1ccc2oc(=O)cc(C(c3ccc[nH]3)c3ccc[nH]3)c2c1`, the GI50 was 0.344 µM and the TGI came out at 3.34 µM.

`C=CC[n+]1c(/C=C/C=C2\N(C)c3ccccc3C2(C)C)sc2ccc(OC)cc21`: the GI50 was 0.0297 µM and the TGI worked out at 1.05 µM.

Regarding `F`, the GI50 was 4500 µM and the TGI is more than 6870 µM.

On to `Nc1c(C(=O)c2cccc(CCCN3CCOCC3)c2)cnn1-c1ccc(F)cc1`, for which the GI50 was more than 20.1 µM and the TGI was more than 25 µM.

Regarding `Cc1ccc([N+](=O)[O-])cc1NC(=O)Nc1cccc(F)c1`, the GI50 is 3.6 µM and the TGI worked out at 24.7 µM.

On to `N#Cc1cnc2ccc(-c3cnc(N)nc3)cc2c1N1CCc2cc(F)c(Cl)cc21`, for which the GI50 was 0.38 µM and the TGI amounted to 2.04 µM.

As to `CCS(=O)(=O)N1CCC(C(C)n2c(C)c(C(=O)NCc3c(OC)cc(C)[nH]c3=O)c3ccccc32)CC1` (configuration not stated), the GI50 was 92 µM and the TGI was more than 100 µM.

For the compound `COC(=O)CCC(=O)C(=O)OC`, the GI50 was 90800 µM and the TGI was more than 100000 µM.

`CC(=O)N[C@@H](Cc1ccc(OP(=O)(O)O)cc1)C(=O)N[C@H]1CCC(=O)N2CCC[C@@H](C(=O)NCc3ccc(Cl)cc3)N2C1=O`: the GI50 was more than 25 µM and the TGI is more than 25 µM.

Take `O=C(NNc1nc2cc(F)ccc2n2c(CN3CCCC3)ccc12)c1cnccn1`: the GI50 is 1.6 µM and the TGI was found to be 6.9 µM.

Take `C[C@@H]1COCCN1c1cc(C2([S@](C)(=N)=O)CC2)nc(-c2ccnc3[nH]ccc23)n1`: the GI50 is 3.12 µM and 4.14 µM; the TGI was 27.2 µM and > 10 µM.

As to `COc1ccc(CC(C)=C(c2ccc(OCCN3CCCC3)cc2)c2ccc(OCCN3CCCC3)cc2)cc1`, the GI50 was 0.777 µM and the TGI was determined as 3.1 µM.

In the case of `Cc1ccc2c(c1)C(C)Cc1c(ncnc1-n1cnc3ccccc31)N2C` (configuration not stated), the GI50 was 0.262 µM and the TGI is 23.2 µM.

`COc1ccc2[nH]c(=O)c3c4ccccc4cn3c2c1`: the GI50 was 0.179 µM and the TGI was 1.36 µM.

As for `CC(C)[C@]12O[C@H]1[C@@H]1O[C@]13[C@]1(O[C@H]1C[C@H]1C4=C(CC[C@@]13C)C(=O)OC4)[C@@H]2O`, the GI50 was 0.0176 µM and the TGI was 0.0385 µM.

On to `CCSCC1CC(O)(c2ccccc2)C(c2ccccc2)C(c2ccc(Cl)cc2)O1` (configuration not stated), for which the GI50 was 1.7 µM and the TGI worked out at 3.55 µM.

For `Nc1ccc2c(c1)C(=O)C(=O)c1c-2nc2ccccn12`, the GI50 was 1.53 µM and the TGI turned out to be 3.11 µM.

Take `Cc1cccc(NC(=O)CCc2ccc(N3C(N)=NC(N)=NC3(C)C)cc2)c1`: the GI50 was 0.692 µM and the TGI was more than 51.4 µM.

`Nc1cc(-c2c[nH]c3ccc(F)cc23)nc2cc(-c3c[nH]c4ccc(F)cc34)nn12`: the GI50 was 2.01 µM and the TGI came out at 3.84 µM.

For the compound `Cn1cc(-c2ccc3c(Nc4cccc(NC(=O)Nc5cccc(F)c5)c4)ncnc3c2)cn1`, the GI50 was 0.107 µM and the TGI was 1.64 µM.

As to `O=C(NC1CCN(Cc2ccccc2)CC1)c1cc(-c2ccncc2)nc2ccc(Cl)cc12`, the GI50 was 6.82 µM and the TGI is 37 µM.

Turning to `CCNC(=O)[C@@H]1CCCN2C(=O)CC[C@H](NC(=O)[C@H](Cc3ccc(OP(=O)(O)O)cc3)NC(C)=O)C(=O)N12`, the GI50 was more than 25 µM and the TGI was more than 25 µM.

Consider `Clc1ccc(CSC(Cn2ccnc2)c2ccc(Cl)cc2Cl)cc1` (configuration not stated), for which the GI50 was 1.39 µM and the TGI was 3.37 µM.

With `COc1ccc(C2CC(c3cc(OC)c(OC)c(OC)c3)=NO2)cc1OCCCCOc1cc2c(cc1OC)C(=O)N1CCC[C@H]1C=N2` (some centres not stated), the GI50 is 1.34 µM and the TGI is 2.97 µM.

As to `CC1(C)N=C(N)N=C(N)N1c1cccc(CCCCc2cccc(S(=O)(=O)F)c2)c1`, the GI50 is 0.748 µM and the TGI was determined as 26.4 µM.

With `COc1cc(NS(C)(=O)=O)ccc1Nc1c2ccc([N+](=O)[O-])cc2nc2c(C)cccc12`, the GI50 is 0.246 µM and the TGI worked out at 0.873 µM.

As for `CN(C)CCOc1ccc(-c2nc(-c3ccc4c(c3)CC/C4=N\O)c(-c3ccncc3)[nH]2)cc1`, the GI50 was 3.63 µM and 2.74 µM; the TGI is 7.37 µM and 24.4 µM.

In the case of `COc1cc2c(cc1O)CC[C@@H]1[C@@H]2CC[C@]2(C)[C@@H](NCCN(C)C)CC[C@@H]12`, the GI50 is 0.126 µM and the TGI worked out at 0.499 µM.

With `CCN(CC)CCOCC[C@H]1CC[C@H]2[C@@H]3[C@H](C)Cc4cc(OS(N)(=O)=O)ccc4[C@H]3CC[C@]12C`, the GI50 was 0.259 µM and the TGI was determined as 1.36 µM.

For the compound `FC(F)(F)Oc1cccc(-c2cnc3ccc(-c4ccncc4)nn23)c1`, the GI50 was 0.59 µM and the TGI turned out to be 3.77 µM.

For the compound `C=C1C(=O)O[C@H]2[C@H]1CC/C(CNC(=O)Cc1c[nH]c3ccccc13)=C\CC[C@@]1(C)O[C@@H]21`, the GI50 was 0.795 µM and the TGI amounted to 2.73 µM.

Regarding `OC(c1cccc(-n2ccc(C(F)(F)F)n2)c1)c1cnccc1NC1CCCCCC1` (configuration not stated), the GI50 is 1.64 µM and the TGI is 3.28 µM.

On to `CCN1CCN(Cc2ccc(-c3cc4c(N[C@H](C)c5ccccc5)ncnc4[nH]3)cc2)CC1`, for which the GI50 is 0.0202 µM and 0.0419 µM; the TGI was 0.286 µM and 0.481 µM.
